Source: ChEMBL document CHEMBL3580632, “Lumiquinone A, an α-Aminomalonate-Derived Aminobenzoquinone from Photorhabdus luminescens” (2015)
Active and inactive are the calls of the source. The rule behind the calls is not given here.

Assays:
Saccharomyces cerevisiae = assay: Antimicrobial activity against Saccharomyces cerevisiae assessed as inhibition of microbial growth at 50 ug/disk incubated at 30 degC for 24 hrs by paper disk method; type: functional
Escherichia coli = assay: Antimicrobial activity against Escherichia coli Nissle1917 assessed as inhibition of microbial growth incubated at 30 degC for 24 hrs by paper disk method; type: functional, organism-based
Bacillus subtilis = assay: Antimicrobial activity against Bacillus subtilis NCIB3610 assessed as inhibition of microbial growth at 50 ug/disk incubated at 30 degC for 24 hrs by paper disk method; type: functional; details: NCIB3610, 24 h, read-out: IZ

| Compound | growth inhibition (GI) (Saccharomyces cerevisiae) | growth inhibition (GI) (Escherichia coli) | zone of inhibition at 50 µg/disc (Bacillus subtilis) [mm] |
| --- | --- | --- | --- |
| CC(C)c1c(O)cc(/C=C/c2ccccc2)cc1O | Active | inactive |  |
| CC(C)C1=C(O)C(=O)C(/C=C/c2ccccc2)=C(N)C1=O |  | inactive | 4 |
